From patent US12123010B2, “Plants having increased tolerance to herbicides” (BASF SE, priority 2017, dated 2024)

How the values were obtained:
[1] = test system: Transgenic T2 Arabidopsis plants and ARBTH WT MC24 non-transgenic; assay: Greenhouse post spray test, injury 14 DAT (Tables ii, iii); format: in vivo, Arabidopsis thaliana; details: Arabidopsis thaliana, 336 h, Table ii; for pest or weed control at 50 g/ha: 50 g ai/ha; for pest or weed control at 100 g/ha: 100 g ai/ha; for pest or weed control at 200 g/ha: 200 g ai/ha;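 on all read-outs here: value is percent injury to the sprayed plants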
[2] = test system: Transgenic T2 Arabidopsis plants harboring PPO inhibitor tolerance trait; assay: Lab based germination assay in 48-well plates (Table i); format: in vivo, Arabidopsis thaliana; details: construct AMATU_PPO2_TP_hemG (Escherichia coli); in comparison to wild type plants
[3] = test system: Variant PPO Enzyme F420M (Amaranthus PPO2); assay: biochemical; format: biochemical; details: variant F420M vs wild type
[4] = biological target: Wild Type PPO Enzyme (Amaranthus PPO2, SEQ ID NO: 1) (Amaranthus tuberculatus, UniProt Q0NZW9); assay: PPO enzyme assay (recombinant), wild type; format: biochemical
[5] = test system: Variant PPO Enzyme R128A, F420V (Amaranthus PPO2); assay: biochemical; format: biochemical; details: variant R128A, F420V vs wild type
[6] = test system: Variant PPO Enzyme R128A, F420M (Amaranthus PPO2); format: biochemical; details: variant R128A, F420M vs wild type
[7] = test system: Variant PPO Enzyme L397E, F420M (Amaranthus PPO2); format: biochemical; details: variant L397E, F420M vs wild type
[8] = AMATU_PPO2_WT event Q, 1 g ai/ha
[9] = AMATU_PPO2_WT event Q, 5 g ai/ha
[10] = AMATU_PPO2_WT event Q, 10 g ai/ha
[11] = AMATU_PPO2_WT event Q, 30 g ai/ha
[12] = ARBTH WT MC24 non-transgenic, 1 g ai/ha + 1% MSO
[13] = ARBTH WT MC24 non-transgenic, 5 g ai/ha + 1% MSO
[14] = ARBTH WT MC24 non-transgenic, 10 g ai/ha + 1% MSO
[15] = ARBTH WT MC24 non-transgenic, 30 g ai/ha + 1% MSO
[16] = ARBTH WT MC24 non-transgenic, 80 g ai/ha + 1% MSO
[17] = ARBTH_PPO1_S305L_Y426M event O, 5 g ai/ha
[18] = ARBTH_PPO1_S305L_Y426M event O, 10 g ai/ha
[19] = ARBTH_PPO1_S305L_Y426M event O, 30 g ai/ha
[20] = ARBTH_PPO1_S305L_Y426M event O, 80 g ai/ha
[21] = ARBTH_PPO1_WT event Q, 1 g ai/ha
[22] = ARBTH_PPO1_WT event Q, 5 g ai/ha
[23] = ARBTH_PPO1_WT event Q, 10 g ai/ha
[24] = ARBTH_PPO1_WT event Q, 30 g ai/ha

Chain of Wild Type PPO Enzyme (Amaranthus PPO2, SEQ ID NO: 1) (Q0NZW9 1-534): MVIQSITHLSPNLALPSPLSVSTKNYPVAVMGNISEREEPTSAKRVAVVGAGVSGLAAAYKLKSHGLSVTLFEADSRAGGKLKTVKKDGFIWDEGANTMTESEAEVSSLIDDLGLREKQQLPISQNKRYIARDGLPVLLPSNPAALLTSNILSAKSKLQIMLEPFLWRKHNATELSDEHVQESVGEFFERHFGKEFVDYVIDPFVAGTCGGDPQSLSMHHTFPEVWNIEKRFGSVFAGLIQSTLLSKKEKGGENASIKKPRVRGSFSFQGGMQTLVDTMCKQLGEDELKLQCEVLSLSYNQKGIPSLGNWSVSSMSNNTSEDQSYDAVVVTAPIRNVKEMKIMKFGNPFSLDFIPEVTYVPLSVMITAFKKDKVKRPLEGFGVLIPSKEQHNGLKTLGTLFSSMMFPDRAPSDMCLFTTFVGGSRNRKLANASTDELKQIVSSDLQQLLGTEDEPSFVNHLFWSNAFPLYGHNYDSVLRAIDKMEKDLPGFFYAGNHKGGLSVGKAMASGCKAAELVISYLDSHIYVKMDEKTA

SMILES | pest or weed control at 1 g/ha [1, 8] | pest or weed control at 5 g/ha [1, 9] | pest or weed control at 10 g/ha [1, 10] | pest or weed control at 30 g/ha [1, 11] | pest or weed control at 1 g/ha [1, 12] | pest or weed control at 5 g/ha [1, 13] | pest or weed control at 10 g/ha [1, 14] | pest or weed control at 30 g/ha [1, 15] | pest or weed control at 80 g/ha [1, 16] | pest or weed control at 5 g/ha [1, 17] | pest or weed control at 10 g/ha [1, 18] | pest or weed control at 30 g/ha [1, 19] | pest or weed control at 80 g/ha [1, 20] | pest or weed control at 1 g/ha [1, 21] | pest or weed control at 5 g/ha [1, 22] | pest or weed control at 10 g/ha [1, 23] | pest or weed control at 30 g/ha [1, 24] | Tolerance Factor [2] | IC50 [4] | other results
Cn1c(C(F)(F)F)cc(=O)n(-c2nc(Oc3cccnc3OCC(=O)O)c(Cl)cc2F)c1=O [Uracilpyridine 3, 2-[[3-[[3-chloro-5-fluoro-6-[3-methyl-2,6-dioxo-4-(trifluoromethyl)pyrimidin-1-yl]-2-pyridyl]oxy]-2-pyridyl]oxy]acetic acid] | 48% | 80% | 100% | 100% | 88% | 100% | 100% | 100% | 100% | 0% | 0% | 49% | 13% | 10% | 83% | 98% | 100% | 1600 |  | 
Cn1c(C(F)(F)F)cc(=O)n(-c2nc(Oc3ccccc3OCC(=O)O)c(Cl)cc2F)c1=O [Uracilpyridine 5, 2-[2-[[3-chloro-5-fluoro-6-[3-methyl-2,6-dioxo-4-(trifluoromethyl)pyrimidin-1-yl]-2-pyridyl]oxy]phenoxy]acetic acid] | 28% | 90% | 100% | 100% | 100% | 100% | 100% | 100% | 100% | 0% | 0% | 68% | 73% | 45% | 90% | 99% | 100% | 1400 |  | 
Cn1c(C(F)(F)F)cc(=O)n(-c2nc(Oc3ccccc3OCC(=O)O)c(F)cc2F)c1=O [Uracilpyridine 9, 2-[2-[[3,5-difluoro-6-[3-methyl-2,6-dioxo-4-(trifluoromethyl)pyrimidin-1-yl]-2-pyridyl]oxy]phenoxy]acetic acid] | 38% | 68% | 100% | 100% | 85% | 100% | 100% | 100% | 100% | 0% | 0% | 0% | 0% | 10% | 50% | 70% | 98% | 1600 |  | 
CCOC(=O)COc1ccccc1Oc1nc(-n2c(=O)cc(C(F)(F)F)n(C)c2=O)c(F)cc1F [Uracilpyridine 8, ethyl 2-[2-[[3,5-difluoro-6-[3-methyl-2,6-dioxo-4-(trifluoromethyl)pyrimidin-1-yl]-2-pyridyl]oxy]phenoxy]acetate] | 10% | 55% | 100% | 100% | 88% | 100% | 100% | 100% | 100% | 0% | 0% | 0% | 0% | 10% | 30% | 55% | 100% | 8202 | 0.496 nM | Tolerance Factor (R/S) [3]: 139; Tolerance Factor (R/S) [5]: 4531
Cn1c(C(F)(F)F)cc(=O)n(-c2nc(Oc3ccccc3OCC(=O)NS(C)(=O)=O)c(Cl)cc2F)c1=O [Uracilpyridine 10, 2-[2-[[3-chloro-5-fluoro-6-[3-methyl-2,6-dioxo-4-(trifluoromethyl)pyrimidin-1-yl]-2-pyridyl]oxy]phenoxy]-N-methylsulfonyl-acetamide] | 58% | 100% | 100% | 100% | 100% | 100% | 100% | 100% | 100% | 10% | 8% | 99% | 99% | 50% | 98% | 100% | 100% |  | 0.212 nM | pest or weed control at 50 g/ha ([1]; ALOMY_PPO2_R137L_F438V event F): 0%; pest or weed control at 100 g/ha ([1]; ALOMY_PPO2_R137L_F438V event F): 8%; pest or weed control at 200 g/ha ([1]; ALOMY_PPO2_R137L_F438V event F): 10%; pest or weed control at 50 g/ha ([1]; ALOMY_PPO2_R137L_F438V event G): 0%; pest or weed control at 100 g/ha ([1]; ALOMY_PPO2_R137L_F438V event G): 0%; pest or weed control at 200 g/ha ([1]; ALOMY_PPO2_R137L_F438V event G): 5%; pest or weed control at 50 g/ha ([1]; AMATU_PPO2_L397E_F420V event D): 0%; pest or weed control at 100 g/ha ([1]; AMATU_PPO2_L397E_F420V event D): 5%; pest or weed control at 200 g/ha ([1]; AMATU_PPO2_L397E_F420V event D): 13%; pest or weed control at 50 g/ha ([1]; AMATU_PPO2_L397E_F420V event L): 8%; pest or weed control at 100 g/ha ([1]; AMATU_PPO2_L397E_F420V event L): 53%; pest or weed control at 200 g/ha ([1]; AMATU_PPO2_L397E_F420V event L): 20%; pest or weed control at 50 g/ha ([1]; AMATU_PPO2_R128A_F420V event A): 38%; pest or weed control at 100 g/ha ([1]; AMATU_PPO2_R128A_F420V event A): 53%; pest or weed control at 200 g/ha ([1]; AMATU_PPO2_R128A_F420V event A): 68%; pest or weed control at 50 g/ha ([1]; AMATU_PPO2_R128A_F420V event D): 30%; pest or weed control at 100 g/ha ([1]; AMATU_PPO2_R128A_F420V event D): 78%; pest or weed control at 200 g/ha ([1]; AMATU_PPO2_R128A_F420V event D): 88%; Tolerance Factor (R/S) [6]: 7879; Tolerance Factor (R/S) [7]: 30714
